≈ marks a conversion by molar mass, not a printed value. Read-outs that look alike come from different tables or passages of the source.
Tests used:
ruminal organisms = assay: Ruminal fluid batch culture (artificial rumen): growth inhibition / methane formation; assay type: cell-based, steers
RFA-P synthase = target: T1, RFA-P synthase (Archaeoglobus fulgidus, UniProt O28190); assay: biochemical; assay type: biochemical
T1 sequence (O28190 1-313): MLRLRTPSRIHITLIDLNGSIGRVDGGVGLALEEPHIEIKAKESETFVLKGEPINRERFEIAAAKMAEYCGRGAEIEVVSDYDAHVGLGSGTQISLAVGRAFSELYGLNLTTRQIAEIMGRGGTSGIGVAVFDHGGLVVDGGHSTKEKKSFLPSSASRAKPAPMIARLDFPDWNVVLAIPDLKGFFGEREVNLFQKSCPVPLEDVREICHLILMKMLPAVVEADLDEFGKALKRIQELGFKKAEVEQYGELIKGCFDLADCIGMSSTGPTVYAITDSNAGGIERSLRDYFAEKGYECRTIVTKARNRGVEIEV

M. marburgensis [1] = assay: microbe, parasite or virus in culture; assay type: cell-based; conditions: for inhibition of growth of Methanothermobacter marburgensis (figure legend): FIG. 4: 1000 μM A2, 300 μM and 500 μM A4; for MIC: read-out: Inhibition of Growth M. marburgensis: concentration of compound which completely inhibited growth
Moorella thermoacetica = assay: Inhibition of growth of acetogen Moorella thermoacetica; assay type: cell-based; conditions: FIG. 5
M. marburgensis [2] = assay type: cell-based
[3] = inhibition constant, substrates at saturating concentrations, first tested at 1 mM, competitive inhibition fit, read-out: Ki
[4] = Methanothermobacter marburgensis, H2/CO2-grown, 65° C., OD 580 nm, words refer to 1 millimolar
[5] = total methane over 48 hours, compound at (100), 600 micromoles without inhibitor
[6] = Methanothermobacter marburgensis

Structure (SMILES)	Ki (RFA-P synthase; [3])	MIC (M. marburgensis [1]; [4])	also measured
O=C(O)c1ccc(NCCO)cc1 [4-(2-hydroxyethylamino)benzoate]	–	–	methane production, % of the control level (ruminal organisms; artificial rumen, 9 mM compound): 2.5%
CCNc1ccc(C(=O)O)cc1 [4-(ethylamino)benzoate]	–	–	methane production, % of the control level (ruminal organisms): 2.5%
CC(C)Nc1ccc(C(=O)O)cc1 [4-(isopropylamino)benzoic acid]	–	–	inhibition of RFA-P synthase (figure legend) (RFA-P synthase): inhibition of RFA-P synthase; inhibition of methanogen growth (figure legend) (M. marburgensis [1]; FIG. 7A: M. marburgensis, 15, 25, 75 and 90 micromoles of compound, OD 580 nm): inhibition of methanogen growth
O=C(O)c1ccc(NCc2ccccn2)cc1 [4-[(2-pyridylmethyl)amino]benzoic acid]	–	–	concentration that completely arrests growth of and methane formation by M. marburgensis (M. marburgensis [1]): 100 mM; reversal of inhibition by supplementing the medium with pABA (M. marburgensis [1]; M. marburgensis): fully reversed
NCc1ccc(B(O)O)cc1 [Compound A2]	140 µM	–	inhibition of growth of Moorella thermoacetica (figure legend) (Moorella thermoacetica): inability; inhibition of growth of Methanothermobacter marburgensis (figure legend) (M. marburgensis [1]): inhibit growth
CC(C)Nc1ccc(C(=O)O)cc1 [Compound A3]	9 µM	100 µM (≈ 17.9 µg/mL)	Methane Produced (M. marburgensis [2]; [5]): 0.01 μ moles
CC(C)CNc1ccc(C(=O)O)cc1 [Compound A4]	10 µM	500 µM (≈ 96.6 µg/mL)	inhibition of RFA-P synthase (figure legend) (RFA-P synthase): inhibit RFA-P synthase; inhibition of growth of Moorella thermoacetica (figure legend) (Moorella thermoacetica): inability; inhibition of growth of Methanothermobacter marburgensis (figure legend) (M. marburgensis [1]): inhibit growth; Methane Produced (M. marburgensis [2]; total methane over 48 hours, compound at (500), 600 micromoles without inhibitor): 0.02 μ moles
O=C(O)c1ccc(NCCO)cc1 [Compound A5]	17 µM	300 µM (≈ 54.4 µg/mL)	–
O=C(O)c1ccc(NCc2ccco2)cc1 [Compound A6]	7.5 µM	300 µM (≈ 65.2 µg/mL)	–
NCc1ccc(C(=O)O)cc1 [Compound A7, 4-(aminomethyl)benzoic acid]	75 µM	–	inhibition of RFA-P synthase (figure legend) (RFA-P synthase): inhibit RFA-P synthase; Methane Produced (M. marburgensis [2]): 0.07 μ moles
Nc1ccc(CC(=O)O)cc1 [Compound A9, (4-aminophenyl)acetic acid]	60 µM	–	MIC (M. marburgensis [1]; [6]): 1000 µM (≈ 151 µg/mL)
CCOC(=O)c1ccc(NC(C)C)cc1 [Compound A11]	130 µM	1000 µM (≈ 207 µg/mL)	–
Nc1ccc(S(=O)(=O)O)cc1 [Compound A12]	7 µM	–	–
CC(C)OP(=O)(O)c1ccc(N)cc1 [Compound A13]	–	–	Ki (RFA-P synthase): 15 µM; MIC (M. marburgensis [1]; [6]): 1000 µM (≈ 215 µg/mL)
CCCCOP(=O)(O)c1ccc(N)cc1 [Compound A14]	–	–	Ki (RFA-P synthase): 25 µM
OCc1ccc(B(O)O)cc1 [Compound A15]	9 µM	–	MIC (M. marburgensis [1]; [6]): 100 µM (≈ 15.2 µg/mL)
Cc1cc(C(=O)O)ccc1NC(C)C [Compound A16]	23 µM	300 µM (≈ 58 µg/mL)	–
CCNc1ccc(C(=O)O)cc1 [Compound A19]	–	–	Ki (RFA-P synthase): 155 µM; MIC (M. marburgensis [1]; [6]): 300 µM (≈ 49.6 µg/mL)
CCCNc1ccc(C(=O)O)cc1 [Compound A20]	20 µM	600 µM (≈ 108 µg/mL)	inhibition of RFA-P synthase (figure legend) (RFA-P synthase): inhibit RFA-P synthase; Methane Produced (M. marburgensis [2]; total methane over 48 hours, compound at (600), 600 micromoles without inhibitor): 0.05 μ moles
CCCCCCNc1ccc(C(=O)O)cc1 [Compound A21]	–	500 µM (≈ 111 µg/mL)	–
CC(Nc1ccc(C(=O)O)cc1)C(F)(F)F (centres unmarked) [Compound A22]	59 µM	–	–
CC(C)CCNc1ccc(C(=O)O)cc1 [Compound A24]	–	1000 µM (≈ 207 µg/mL)	–

Structure (SMILES)	Ki (RFA-P synthase; [3])	MIC (M. marburgensis [1]; [4])	also measured
O=C(O)c1ccc(NC2CCCC2)cc1 [Compound A25]	–	1000 µM (≈ 205 µg/mL)	–
O=C(O)c1ccc(NCc2ccoc2)cc1 [Compound A26]	84 µM	100 µM (≈ 21.7 µg/mL)	Methane Produced (M. marburgensis [2]; [5]): 0.06 μ moles
O=C(O)c1ccc(NCc2cccs2)cc1 [Compound A27]	72 µM	–	–
O=C(O)c1ccc(NCc2ccsc2)cc1 [Compound A28]	55 µM	1000 µM (≈ 233 µg/mL)	–
O=C(O)c1ccc(NCc2ccccc2)cc1 [Compound A29]	51 µM	500 µM (≈ 114 µg/mL)	–
O=C(O)c1ccc(NCc2c(F)c(F)c(F)c(F)c2F)cc1 [Compound A30]	–	500 µM (≈ 159 µg/mL)	–
O=C(O)c1ccc(NCc2ccccc2O)cc1 [Compound A31]	705 µM	1000 µM (≈ 243 µg/mL)	–
O=C(O)c1ccc(NCc2ccc(O)cc2)cc1 [Compound A32]	–	300 µM (≈ 73 µg/mL)	–
O=C(O)c1ccc(NCc2ccccn2)cc1 [Compound A33]	19 µM	0.1 µM (≈ 0.0228 µg/mL)	Methane Produced (M. marburgensis [2]; total methane over 48 hours, compound at (0.1), 600 micromoles without inhibitor): 0.08 μ moles
Cc1cccc(CNc2ccc(C(=O)O)cc2)n1 [Compound A34]	19 µM	–	–
O=C(O)c1ccc(NCc2ccc3ccccc3n2)cc1 [Compound A35]	–	1000 µM (≈ 278 µg/mL)	–
O=C(O)c1ccc(NCc2ccncc2)cc1 [Compound A36]	–	1000 µM (≈ 228 µg/mL)	–
Nc1ccc(C(=O)O)cc1O [Compound A38]	–	500 µM (≈ 76.6 µg/mL)	–
Nc1cc(C(=O)O)ccn1 [Compound A39]	–	1000 µM (≈ 138 µg/mL)	–
O=C(O)c1ccc(CO)cc1 [Compound A40]	270 µM	–	–
CCC(C(=O)O)c1ccc(N)cc1 (centres unmarked) [Compound A41]	–	500 µM (≈ 89.6 µg/mL)	–
O=C(O)Cc1ccc(NCc2ccco2)cc1 [Compound A42]	–	1000 µM (≈ 231 µg/mL)	–
Nc1cccc(CC(=O)O)c1 [Compound A43]	–	500 µM (≈ 75.6 µg/mL)	–
O=C(O)Cc1ccc(O)cc1 [Compound A44]	–	–	Ki (RFA-P synthase): 115 µM
Cc1cc(S(=O)(=O)O)ccc1N [Compound A45]	–	–	MIC (M. marburgensis [1]; [6]): 500 µM (≈ 93.6 µg/mL)
CCOP(=O)(OCC)c1ccc(NCC(C)C)cc1 [Compound A47]	–	–	MIC (M. marburgensis [1]): 500 µM (≈ 143 µg/mL)
CCOP(=O)(O)c1ccc(N)cc1 [Compound A48]	–	–	Ki (RFA-P synthase): 65 µM

Structure (SMILES)	Ki (RFA-P synthase; [3])	MIC (M. marburgensis [1]; [4])	also measured
Nc1ccc(P(=O)(O)O)cc1 [Compound A49]	–	–	Ki (RFA-P synthase): 85 µM
CC(C)Nc1ccc(P(=O)(O)OC(C)C)cc1 [Compound A50]	–	–	MIC (M. marburgensis [1]; [6]): 100 µM (≈ 25.7 µg/mL)
CC(C)OP(=O)(O)c1ccc(NCc2ccco2)cc1 [Compound A51]	–	–	MIC (M. marburgensis [1]; [6]): 100 µM (≈ 29.5 µg/mL)
CC(C)OP(=O)(O)c1ccc(NCc2cccnc2)cc1 [Compound A52]	–	–	MIC (M. marburgensis [1]; [6]): 1000 µM (≈ 306 µg/mL)
CCCCOP(=O)(O)c1ccc(NC(C)C)cc1 [Compound A53]	–	–	Ki (RFA-P synthase): 25 µM; MIC (M. marburgensis [1]; [6]): 300 µM (≈ 81.4 µg/mL)
CCCCOP(=O)(O)c1ccc(NCc2ccccn2)cc1 [Compound A55]	–	–	Ki (RFA-P synthase): 25 µM; MIC (M. marburgensis [1]; [6]): 100 µM (≈ 32 µg/mL)
CNc1ccc(C(=O)O)cc1 [Compound A56]	145 µM	–	–
CCCCNc1ccc(C(=O)O)cc1 [Compound A58]	–	–	MIC (M. marburgensis [1]; [6]): 1000 µM (≈ 193 µg/mL)
CCCOC(=O)c1ccc(NC(C)C)cc1 [Compound A65]	130 µM	–	–
CCCCOC(=O)c1ccc(NC(C)C)cc1 [Compound A66]	190 µM	1000 µM (≈ 235 µg/mL)	–
OB(O)c1ccncc1 [Compound A74]	200 µM	–	–
Nc1ccc(/C=C/C(=O)O)cc1 [Compound A80]	–	500 µM (≈ 81.6 µg/mL)	–
O=C(O)[C@H]1CC[C@@H](NCc2ccco2)CC1 [Compound B1]	63 µM	0.1 µM (≈ 0.0223 µg/mL)	–
O=C(O)[C@H]1CC[C@H](NCc2ccco2)CC1 [Compound B2]	–	500 µM (≈ 112 µg/mL)	–
CC(C)CN[C@H]1CC[C@@H](C(=O)O)CC1 [Compound B3]	44 µM	–	–
N[C@H]1CC[C@H](C(=O)O)CC1 [Compound B7]	–	500 µM (≈ 71.6 µg/mL)	–
O=P(O)(O)OC[C@H]1N[C@@H](c2ccccc2)[C@H](O)[C@@H]1O [Compound C1]	30 µM	500 µM (≈ 145 µg/mL)	–
OCc1ccc([C@@H]2N[C@H](CO)[C@@H](O)[C@H]2O)cc1 [Compound C4]	–	1000 µM (≈ 239 µg/mL)	–
O=C(O)c1c[nH]cn1 [Compound D3]	–	–	MIC (M. marburgensis [1]; [6]): 1000 µM (≈ 112 µg/mL)
Nc1nc(CC(=O)O)cs1 [Compound D6]	–	500 µM (≈ 79.1 µg/mL)	–
Nc1n[nH]c(C(=O)O)n1 [Compound D7]	–	1000 µM (≈ 128 µg/mL)	–
